test system: HCC1954 cells; assay: Inhibition of HCC1954 cell growth (method analogous to BT-474); assay type: cell-based; conditions: Homo sapiens
Protocol: BT-474 human mammary gland ductal carcinoma cells were seeded in a clear polystyrene 96-well microculture plate (Corning® Costar® 96-well flat bottom plate, Cat. #3997) in a total volume of 90 μL/well. After 24 hours of incubation in a humidified incubator at 37° C. with 5% CO2 and 95% air, 10 μL of 10×, serially diluted test agents in growth medium were added to each well (10 pt dose response curve, highest concentration 10 μM of test agent). After 72 hours of culture in a humidified incubator at 37° C., in an atmosphere of 5% CO2 and 95% air, the plated cells and Cell Titer-Glo® (Protnega G7571) reagents were brought to room temperature to equilibrate for 30 minutes. 100 μL of Cell Titer-Glo® reagent was added to each well. The plate was shaken for two minutes and then left to equilibrate for ten minutes. The media/Cell Titer-Glo® reagent was transferred to a white polystyrene 96-well microculture plate (Corning® Costar® 96-well flat bottom plate, Cat. #3917) before reading luminescence on a Tecan GENios microplate reader.
Percent inhibition of cell growth was calculated relative to untreated control wells. The IC50 value for the test agents was determined using Prism 6.05 by curve-fitting of the data using the following four parameter-logistic equation:
[formula] where Top is the maximal % of control absorbance, Bottom is the minimal % of control absorbance at the highest agent concentration, Y is the % of control absorbance, X is the agent concentration, IC50 is the concentration of agent that inhibits cell growth by 50% compared to the control cells, and n is the slope of the curve.
Inhibitory response of test compounds against HCC1954 cells was determined using a method analogous to that used for BT-474 cells.

In order of rising IC50:
1. C/C=C(\C)[C@H]1OC(=O)[C@@H](C)NC(=O)[C@H]([C@H](C)CC)NC(=O)CN(C)C(=O)[C@@H](Cc2ccc(Cl)cc2)N(C)C(=O)[C@H](C)NC(=O)[C@@H](CC(C)C)OC(=O)/C(C)=C/C[C@H](OC(=O)NCCCCCO)[C@@H]1C [Compound 16, (2R,5S,8R,14S,17R,20S,21S,22S,E)-20-((E)-but-2-en-2-yl)-14-((R)-sec-butyl)-8-(4-chlorobenzyl)-2-isobutyl-5,7,10,17,21,25-hexamethyl-3,6,9,12,15,18,26-heptaoxo-1,19-dioxa-4,7,10,13,16-pentaazacyclohexacos-24-en-22-yl (5-hydroxypentyl)carbamate]  0.1 nM
2. C/C=C(\C)[C@H]1OC(=O)[C@@H](C)NC(=O)[C@H]([C@H](C)CC)NC(=O)CN(C)C(=O)[C@@H](Cc2ccccc2)N(C)C(=O)[C@H](C)NC(=O)[C@@H](CC(C)C)OC(=O)/C(C)=C/C[C@H](OC(=O)NCCc2ccc(O)cc2)[C@@H]1C [Compound 10, (2R,5S,8R,14S,17R,20S,21S,22S,E)-8-benzyl-20-((E)-but-2-en-2-yl)-14-((R)-sec-butyl)-2-isobutyl-5,7,10,17,21,25-hexamethyl-3,6,9,12,15,18,26-heptaoxo-1,19-dioxa-4,7,10,13,16-pentaazacyclohexacos-24-en-22-yl (4-hydroxyphenethyl)carbamate]  1.36 nM
3. C/C=C(\C)[C@H]1OC(=O)[C@@H](C)NC(=O)[C@H]([C@H](C)CC)NC(=O)CN(C)C(=O)[C@@H](Cc2ccc(Cl)cc2)N(C)C(=O)[C@H](C)NC(=O)[C@@H](CC(C)C)OC(=O)/C(C)=C/C[C@H](OC(=O)NCCc2ccc(O)cc2)[C@@H]1C [Compound 18, (2R,5S,8R,14S,17R,20S,21S,22S,E)-20-((E)-but-2-en-2-yl)-14-((R)-sec-butyl)-8-(4-chlorobenzyl)-2-isobutyl-5,7,10,17,21,25-hexamethyl-3,6,9,12,15,18,26-heptaoxo-1,19-dioxa-4,7,10,13,16-pentaazacyclohexacos-24-en-22-yl (4-hydroxyphenethyl)carbamate]  2.37 nM
4. C/C=C(\C)[C@H]1OC(=O)[C@@H](C)NC(=O)[C@H]([C@H](C)CC)NC(=O)CN(C)C(=O)[C@@H](Cc2ccccc2)N(C)C(=O)[C@H](C)NC(=O)[C@@H](CC(C)C)OC(=O)/C(C)=C/C[C@H](OC(=O)NCc2ccc(CO)cc2)[C@@H]1C [Compound 12, (2R,5S,8R,14S,17R,20S,21S,22S,E)-8-benzyl-20-((E)-but-2-en-2-yl)-14-((R)-sec-butyl)-2-isobutyl-5,7,10,17,21,25-hexamethyl-3,6,9,12,15,18,26-heptaoxo-1,19-dioxa-4,7,10,13,16-pentaazacyclohexacos-24-en-22-yl (4-(hydroxymethyl)benzyl)carbamate]  3.29 nM
5. C/C=C(\C)[C@H]1OC(=O)[C@@H](C)NC(=O)[C@H]([C@H](C)CC)NC(=O)CN(C)C(=O)[C@@H](Cc2ccc(Cl)cc2)N(C)C(=O)[C@H](C)NC(=O)[C@@H](CC(C)C)OC(=O)/C(C)=C/C[C@H](OC(=O)NCCOCCO)[C@@H]1C [Compound 17, (2R,5S,8R,14S,17R,20S,21S,22S,E)-20-((E)-but-2-en-2-yl)-14-((R)-sec-butyl)-8-(4-chlorobenzyl)-2-isobutyl-5,7,10,17,21,25-hexamethyl-3,6,9,12,15,18,26-heptaoxo-1,19-dioxa-4,7,10,13,16-pentaazacyclohexacos-24-en-22-yl (2-(2-hydroxyethoxy)ethyl)carbamate]  4.15 nM
6. C/C=C(\C)[C@H]1OC(=O)[C@@H](C)NC(=O)[C@H]([C@H](C)CC)NC(=O)CN(C)C(=O)[C@@H](Cc2ccccc2)N(C)C(=O)[C@H](C)NC(=O)[C@@H](CC(C)C)OC(=O)/C(C)=C/C[C@H](OC(=O)NCCCCCCCCCCCCO)[C@@H]1C [Compound 13, (2R,5S,8R,14S,17R,20S,21S,22S,E)-8-benzyl-20-((E)-but-2-en-2-yl)-14-((R)-sec-butyl)-2-isobutyl-5,7,10,17,21,25-hexamethyl-3,6,9,12,15,18,26-heptaoxo-1,19-dioxa-4,7,10,13,16-pentaazacyclohexacos-24-en-22-yl (12-hydroxydodecyl)carbamate]  18.1 nM

From patent publication US11254705B2, “Cyclic peptide analogs and conjugates thereof” (Sirenas LLC, priority 2016, dated 2022)
